Consider 1 compound from patent US6197806A, “Eliminating agent for activated oxygen and free radicals” (Nippon Zoki Pharmaceutical Co., Ltd., priority 1995, dated 2001).

The assay in a line: Measurement of ability for eliminating hydroxyl radicals (ESR spin trapping method, Fenton's reaction, DMPO). Particulars: 1 mM of DMPO; DMPO-OH ESR signal; phosphate buffer pH 7.8; room temperature; read-out: Concentration of Test Substance at 50% Inhibition of Signal Intensity, IC50.

Experimental: Ability of the test substances for eliminating hydroxyl radicals was measured using an ESR spin trapping method which is frequently used for the detection of hydroxyl radicals. Generation of hydroxyl radicals was carried out using a Fenton's reaction in which hydroxyl radicals are generated by a reaction of divalent iron chelated with DTPA (diethylenediamine-pentaacetic acid) with hydrogen peroxide. […] When a test substance having an eliminating action for hydroxyl radicals is present in this reaction system, the above characteristic signal is inhibited and, therefore, the ability for eliminating hydroxyl radicals can be measured using that signal inhibition as an index.
Thus, a solution of a mixture of 1 mM of ferrous sulfate and DTPA dissolved in 100 mM of a phosphate buffer (pH 7.8) was charged in a test tube. Then, 50 μl of a sample solution containing the test substance or hydantoin compound of the invention and 20 μl of 1 mM or 2 mM of DMPO were added. Finally, 75 μl of 1 mM of hydrogen peroxide solution was added to the resulting mixture to initiate the reaction. Hydrogen peroxide solution was prepared immediately before each of the experiments and the reaction was conducted at room temperature.
An ESR spectrum in this reaction system was measured by conventional means. […]

As for `CN1C(=O)NC(=O)C1O` (stereo not shown) [Compound 21, 5-Hydroxy-1-methylhydantoin], the IC50 was found to be 1000 µM.
